# Measured values reported in ChEMBL document CHEMBL1201862, “PubChem BioAssay data set” (2004).
# Calls of active or inactive are those of the source.
# How the values were obtained:
# [1] = Luminescence Cell-Based Dose Retest to Confirm Inhibitors of Cancer Stem Cells. [Related pubchem assays (depositor defined):AID2717, AID2721]; format: functional; details: Homo sapiens
# [2] = viability inhibitors of stage V gametocytes – luminescence, dose response (AID 1117278); format: functional, cell-based;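 further: gametocytes exposed to compound for 24 hours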
# [3] = viability loss in human Jurkat cells – cell-based, luminescence, cytotoxicity control for P. falciparum gametocyte viability project, dose response (AID 1117277); format: functional;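 further: potency reflects loss of cellular ATP meaning fewer viable cells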
# Estrogen receptor = biological target: T1, Estrogen receptor (Homo sapiens, UniProt P03372); test: ERα coactivator recruitment enhancers – biochemical, TR-FRET, ERα LBD, dose response (AID 737)
# T1 sequence (P03372 whole entry): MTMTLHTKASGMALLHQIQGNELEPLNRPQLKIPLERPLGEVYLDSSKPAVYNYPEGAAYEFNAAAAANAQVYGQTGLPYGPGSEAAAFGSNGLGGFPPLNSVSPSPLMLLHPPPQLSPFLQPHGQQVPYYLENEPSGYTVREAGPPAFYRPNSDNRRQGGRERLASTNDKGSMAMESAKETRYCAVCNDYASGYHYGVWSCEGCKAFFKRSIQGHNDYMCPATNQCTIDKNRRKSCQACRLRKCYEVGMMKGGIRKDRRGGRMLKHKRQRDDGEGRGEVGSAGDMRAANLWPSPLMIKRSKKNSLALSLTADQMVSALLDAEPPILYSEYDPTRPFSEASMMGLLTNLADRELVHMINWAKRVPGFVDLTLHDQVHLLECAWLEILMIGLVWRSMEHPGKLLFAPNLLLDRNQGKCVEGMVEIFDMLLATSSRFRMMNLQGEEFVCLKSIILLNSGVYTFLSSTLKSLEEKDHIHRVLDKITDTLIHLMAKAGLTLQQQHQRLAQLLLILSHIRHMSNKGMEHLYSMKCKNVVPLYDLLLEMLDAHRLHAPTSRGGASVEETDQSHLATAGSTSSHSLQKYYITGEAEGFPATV
# Estrogen receptor beta [4] = biological target: T2, Estrogen receptor beta (Homo sapiens, UniProt Q92731); test: blockers of SRC-3 recruitment to ERβ – biochemical, ELISA, streptavidin-HRP readout, orthogonal assay, confirmation (AID 1060)
# Estrogen receptor beta [5] = biological target: T2, Estrogen receptor beta
# [6] = SNU-C1 cell viability reduction, dose response, CellTiter-Glo luminescence (AID 1117323); format: functional, cell-based
# [7] = cytotoxicity toward Colo320 cells – cell-based, CellTiter-Glo luminescence, IC50, dose response (AID 1117334); format: functional; details: COLO 320
# [8] = cytotoxicity toward HCT116 cells – cell-based, CellTiter-Glo luminescence, IC50, dose response (AID 1117332); format: functional; details: HCT-116
# [9] = HCT116 cell viability decrease, GSK3B pretreatment – CellTiter-Glo, IC50, dose response (AID 1117339); format: functional; details: HCT-116
# [10] = biological target: T3, Polyadenylate-binding protein 1 (Homo sapiens, UniProt P11940); test: MLLE domain peptide-binding blockers, IC50 – biochemical, fluorescence polarization, FITC-PAM2 peptide, dose response (AID 602259); format: functional; details: read-out: IC50_Mean
# [11] = Reduced DLD-1 viability, concentration-response, CellTiter-Glo luminescence (AID 1117352); format: functional
# [12] = biological target: T3, Polyadenylate-binding protein 1; test: MLLE binding blockers, Cy5 peptide tracer – biochemical, fluorescence polarization, Cy5-PAM2 peptide, secondary, miRNA deadenylation inhibitor project, dose response (AID 602260); format: functional; details: read-out: IC50_Mean
# [13] = CellTiter-Glo luminescence survival assay, SW480 colon tumor line, concentration-response curve, half-maximal inhibitory concentration (AID 1117338); format: functional
# [14] = cytotoxicity toward HT-29 cells – cell-based, CellTiter-Glo luminescence, IC50, dose response (AID 1117330); format: functional
# [15] = antiviral protection against BTV-induced cell death – arbovirus, BSR cells, confirmation (AID 1250); format: functional;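 further: protection from viral cytopathic effect measured as cell viability by ATP luminescence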
# [16] = Luminescence Cell-Based Dose Response HTS to Identify Activators of Luciferase Translation or Activity in H4 […] Cells. [Related pubchem assays: 1829 (Project Summary), 1814 (Primary HTS)]; format: functional
# [17] = Luminescence Cell-Based Dose Confirmation to Identify Activators of 5'UTR Stem-Loop Driven Alpha-Synuclein mRNA Translation in H4 Neuroglioblastoma Cells. [Related pubchem assays: 1829 (Project Summary), 1814 (Primary HTS)]; format: functional
# [18] = Luminescence Cell-Based Dose Response to Identify Activators of 5'UTR Stem-Loop Driven Prion Protein mRNA Translation in H4-C Neuroglioblastoma Cells. [Related pubchem assays: 1829 (Project Summary), 1814 (Primary HTS)]; format: functional
# [19] = Luminescence Cell-Based Dose Response to Identify Activators of Luciferase Translation or Activity in H4-C Neuroglioblastoma Cells. [Related pubchem assays: 1829 (Project Summary), 1814 (Primary HTS)]; format: functional
# 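Wherever AC50 is given: cells exposed to compound for roughly 70 hours or longer before luminescence read.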
# T3 sequence (P11940 whole entry, the tested form may be a part): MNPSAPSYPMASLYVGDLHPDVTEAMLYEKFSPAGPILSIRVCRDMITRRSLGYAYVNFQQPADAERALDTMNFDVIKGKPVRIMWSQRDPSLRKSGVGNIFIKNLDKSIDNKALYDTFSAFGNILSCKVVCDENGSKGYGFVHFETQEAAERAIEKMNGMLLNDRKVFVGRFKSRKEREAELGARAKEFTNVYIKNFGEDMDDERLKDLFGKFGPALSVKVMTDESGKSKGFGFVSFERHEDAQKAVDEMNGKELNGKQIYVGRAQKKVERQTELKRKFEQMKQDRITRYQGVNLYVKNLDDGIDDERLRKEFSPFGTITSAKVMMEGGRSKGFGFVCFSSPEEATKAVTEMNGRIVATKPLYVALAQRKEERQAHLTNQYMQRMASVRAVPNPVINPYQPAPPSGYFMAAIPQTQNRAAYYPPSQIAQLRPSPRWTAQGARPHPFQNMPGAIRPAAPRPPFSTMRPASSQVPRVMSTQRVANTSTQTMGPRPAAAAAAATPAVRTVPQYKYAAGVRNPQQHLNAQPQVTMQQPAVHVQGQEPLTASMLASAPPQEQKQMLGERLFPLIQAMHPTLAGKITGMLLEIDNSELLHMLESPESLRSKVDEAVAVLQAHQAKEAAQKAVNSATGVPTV
# T2 sequence (Q92731 whole entry): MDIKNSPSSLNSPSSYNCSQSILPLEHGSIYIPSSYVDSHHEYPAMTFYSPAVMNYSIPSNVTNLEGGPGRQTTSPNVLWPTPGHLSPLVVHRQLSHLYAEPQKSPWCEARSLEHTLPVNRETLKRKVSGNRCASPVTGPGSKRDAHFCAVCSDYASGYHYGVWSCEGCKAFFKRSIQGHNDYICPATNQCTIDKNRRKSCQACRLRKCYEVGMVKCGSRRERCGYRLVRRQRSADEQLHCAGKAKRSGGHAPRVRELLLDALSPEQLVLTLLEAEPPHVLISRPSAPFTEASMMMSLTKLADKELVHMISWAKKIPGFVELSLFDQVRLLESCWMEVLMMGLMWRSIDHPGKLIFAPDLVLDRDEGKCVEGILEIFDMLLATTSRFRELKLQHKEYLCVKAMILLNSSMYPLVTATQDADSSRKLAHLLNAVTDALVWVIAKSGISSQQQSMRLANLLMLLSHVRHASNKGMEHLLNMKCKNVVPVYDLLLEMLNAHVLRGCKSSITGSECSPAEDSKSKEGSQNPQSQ
smiles,measurement,setting,value
Cc1ccc(C(=O)NC2c3ccccc3-c3ccccc32)cc1,AC50,[1],0.448 µM (active)
same,IC50,[2],> 109 µM (inactive)
same,IC50,[3],> 1.03 µM (active)
CCOc1ccc(CC2SC(Nc3ccccn3)=NC2=O)cc1 (stereo not given),EC50,Estrogen receptor,25.1 µM (active)
CCOC(=O)c1c(C)[nH]c(C)c1C(=O)COC(=O)CCOc1ccccc1OC,IC50,Estrogen receptor beta [4],> 109 µM (not active)
same,IC50,Estrogen receptor beta [5],35.3 µM (not active)
COP(=S)(OC)Oc1ccc(Sc2ccc(OP(=S)(OC)OC)cc2)cc1 [TEMEFOS],IC50,[6],3.03 µM (active)
same,IC50,[7],> 20 µM (inactive)
same,IC50,[8],> 20 µM (inactive)
same,IC50,[9],> 20 µM (inactive)
same,IC50,[10],> 66 µM (inactive)
same,IC50,[11],> 20 µM (inactive)
same,IC50,[12],> 66 µM (inactive)
same,IC50,[13],0.0118 µM (active)
same,IC50,[14],> 20 µM (inactive)
O=C(Nc1sc2c(c1C(=O)O)CCCCC2)c1cccs1,IC50,[15],27.6 µM (active)
CC(C)c1ccc(C(=O)NNC(=O)C2C3CCC(C3)C2C(=O)O)cc1 (stereo not given),EC50,[16],< 0.1 µM (inconclusive)
same,EC50,[17],0.232 µM (active)
same,EC50,[18],0.281 µM (active)
same,EC50,[19],0.301 µM (active)
